The source of these data is patent US8455485B2, “Pyrazolo pyridine derivatives as NADPH oxidase inhibitors” (Genkyotex SA, priority 2008, dated 2013).

Each structure is given as a SMILES string.

Assay type in all cases: cell-based, human
Assay [1] has as its system NOX activities. Briefly: Chemiluminescence (luminol) measurement of ROS in cells. The procedure: ROS was measured using the chemiluminescent probe luminol. Cells were cultured and plated as for Amplex Red except that the Amplex Red agent was replaced by 10 μg/mL luminol (Sigma 09235). Light emission was recorded continuously at 37° C. for 60 minutes using the luminescence function of the FluoStar Optima fluorescent plate reader. The mean of the four blank values was subtracted from each corrected value for each time point. NOX activities were expressed as % of the activity in control cells. Residual activity of DPI-treated cells was usually <10%.

The subject of assay [2] is NOX activities. Briefly: Nitroblue tetrazolium (NBT) test of intracellular and extracellular superoxide in cells. To be noted: DPI at a final concentration of 10 μM. The procedure: Intracellular and extracellular superoxide was measured by a colorimetric technique using a quantitative nitroblue tetrazolium (NBT) test. SOD-inhibitable conversion of NBT to formazan, a fine blue precipitate, in the presence of superoxide anion was measured using Fluostar Optima spectrometer (BMG labtech). Following incubation with appropriate stimuli, cells were trypsinized (1× Trypsin-EDTA), collected by centrifugation, and washed with PBS to remove medium. 5×10^5 cells were plated on 48-well plates and incubated in Hank's balanced salt solution containing 0.5 mg/mL NBT with or without 800 U/mL SOD in the presence or absence of compounds according to the invention. As a control, DPI was included at a final concentration of 10 μM. After 2.5 h, cells were fixed and washed with methanol to remove non reduced NBT. The reduced formazan was then dissolved in 230 μl of 2M potassium hydroxide and in 280 μl of dimethylsulfoxide. The absorption was measured at 630 nm. For calculation, the absorbance at 630 nm was normalized for each individual well. The mean of the four blank values was subtracted from each corrected value for each time point. NOX activities were expressed as % of the activity in control cells. Residual activity of DPI-treated cells was usually <10%.

The test system of assay [3] is NOX activity. Briefly: Amplex Red measurement of extracellular hydrogen peroxide (NOX activity) using DMSO-differentiated HL60 cells. To be noted: for Inhibition (%) of NOX activity: Amplex red, DMSO-differentiated HL60 cells, compound concentration not stated. The procedure:
Human acute myeloid leukemia cell line HL-60 was cultured in RPMI 1640 (Invitrogen) supplemented with 10% heat-inactivated calf serum, 2 mM glutamine, 100 U/mL penicillin (Sigma), and 100 μg streptomycin (Sigma) at 37° C. under a humidified atmosphere of 5% CO2. HL60 differentiation to the neutrophil phenotype was triggered by adding Me2SO (final concentration 1.25% v/v for 6 days) to the culture medium.
Extracellular hydrogen peroxide was measured using Amplex UltraRed (Molecular Probes). Cells were trypsinized (1× Trypsin-EDTA), collected by centrifugation, and resuspended in HBSS supplemented with 1% glucose. Cells were seeded into black 96-well plates at a density of 50′000 cells in 200 μl testing buffer (HBSS 1% glucose containing 0.005 U/mL horseradish peroxidase (Roche) and 50 μM Amplex Red in the presence or absence of compounds according to the invention. As a control, DPI was included at a final concentration of 10 μM The plates were placed in the fluorescent Optima Fluorescent plate reader and kept at 37° C. during 20 min Fluorescence was measured for […] with excitation and emission wavelengths of 544 nm and 590 nm respectively. NOX activities were expressed as % of the activity in control cells. Residual activity of DPI-treated cells was usually <10%.
The Table 2 below summarizes the percentage of inhibition of NOX activity as measured by Amplex red using DMSO-differentiated HL60 cells as described above: […]

Assay [4] relates to NOX activities. Briefly: H2DCF-DA (DCF fluorescence) ROS measurement in TGF-β stimulated HUVEC. The procedure: HUVEC are cultured in endothelial basal medium supplemented with hydrocortisone (1 μg/mL, CalbioChem), bovine brain extract (12 μg/mL), gentamicin (50 μg/mL, CalbioChem), amphotericin B (50 ng/mL, CalBioChem EGF (10 ng/mL, and 10% FCS until the fourth passage. When the fifth passage was started, cells were cultured with a lower concentration of FCS (2%) in the absence of EGF, if not indicated otherwise. All experiments were done with cells of the fifth passage. The cells were incubated with OxLDL (oxidized low-density lipoprotein) or its buffer as control for 24 h, before detection of O2^− formation.
HUVEC were plated on coverslips and made quiescent overnight in 0.5% BSA before stimulation with TGF-β. Cells were loaded for 10 minutes with 5 μM CM-H2DCFDA in phenol-red-free medium in the dark and then treated with TGF-β (R&D Systems) in the presence or absence of compounds according to the invention. Cells were then visualized by immunofluorescence microscopy after fixation and staining of the nuclei with DAPI or examined live using confocal microscopy. DCF fluorescence was visualized at an excitation wavelength of 488 nm and emission at 515 to 540 nm. […] For calculation, the absorbance at […] was normalized to absorbance at […] for each individual well. […] NOX activities were expressed as % of the activity in control cells. […]

Regarding `c1ccc([I+]c2ccccc2)cc1` [DPI, Diphenyl-iodonium], the “Residual activity of DPI-treated cells (NOX activity as % of the activity in control cells)” value in assay [1] is given as under 10%; in assay [2], under 10%; in assay [3] (Amplex Red, DPI at a final concentration of 10 μM) it was under 10%; in assay [4], under 10%.
Turning to `O=c1c2c(CN3CCOCC3)n(Cc3ccccc3)c(=O)cc2[nH]n1-c1ccccc1Cl` [Compound 1, 5-benzyl-2-(2-chlorophenyl)-4-(morpholin-4-ylmethyl)-1H-pyrazolo[4,3-c]pyridine-3,6(2H,5H)-dione], the “Inhibition (%) of NOX activity” value in assay [3] turned out to be 80%.
For `CC(C)(C)OC(=O)N1CCC(Cn2c(COCc3ccccc3)c3c(=O)n(-c4ccccc4Cl)[nH]c3cc2=O)CC1` [Compound 100, tert-butyl 4-({4-[(benzyloxy)methyl]-2-(2-chlorophenyl)-3,6-dioxo-1,2,3,6-tetrahydro-5H-pyrazolo[4,3-c]pyri-din-5-yl}methyl)pipe-ridine-1-carboxylate], the “Inhibition (%) of NOX activity” value in assay [3] is 78%.
In the case of `CCCCc1c2c(=O)n(-c3ccc(F)cc3Cl)[nH]c2cc(=O)n1CCc1ccccn1` [Compound 10, 4-butyl-2-(2-chloro-4-fluorophenyl)-5-(2-pyridin-2-ylethyl)-1H-pyrazolo[4,3-c]pyridine-3,6(2H,5H)-dione], in assay [3], the “Inhibition (%) of NOX activity” value is listed as 78%.
Same read-out and setting: then `COCc1c2c(=O)n(-c3cccc(Cl)c3)[nH]c2cc(=O)n1Cc1ccccn1` [Compound 23, 2-(3-chlorophenyl)-4-(methoxymethyl)-5-(pyridin-2-ylmethyl)-1H-pyrazolo[4,3-c]pyridine-3,6(2H,5H)-dione], with 89%.
On to `CCCCc1c2c(=O)n(-c3ccc(OCc4ccccc4)cc3)[nH]c2cc(=O)n1C` [Compound 5, 2-[4-(benzyloxy)phenyl]-4-butyl-5-methyl-1H-pyrazolo[4,3-c]pyridine-3,6(2H,5H)-dione], for which the “Inhibition (%) of NOX activity” value in assay [3] is recorded as 94%.
Take `CN1CCC(Cn2c(COCc3ccccc3)c3c(=O)n(-c4ccccc4Cl)[nH]c3cc2=O)CC1` [Compound 106, 4-[(benzyloxy)methyl]-2-(2-chlorophenyl)-5-[(1-methylpiperidin-4-yl)methyl]-1H-pyrazolo [4,3-c]pyridine-3,6(2H,5H)-dione]: the “Inhibition (%) of NOX activity” value in assay [3] amounted to 81%.
